{
  "source": "patent US10137126B2",
  "about": "“Method of preparing very slightly soluble drug with solid dosage form” (YUNG SHIN PHARM. IND. CO., LTD., priority 2015, dated 2018)",
  "origin": "cited, not measured here",
  "data": [
    {"values": [
      {"smiles": "CCC(C)n1ncn(-c2ccc(N3CCN(c4ccc(OCC5COC(Cn6cncn6)(c6ccc(Cl)cc6Cl)O5)cc4)CC3)cc2)c1=O", "note": "(stereo not drawn) [Itraconazole]", "aqueous solubility": "1 g/1,000 ml"},
      {"smiles": "CN1CC(=O)N2[C@H](c3ccc4c(c3)OCO4)c3[nH]c4ccccc4c3C[C@@H]2C1=O", "note": "[Tadalafil]", "aqueous solubility": "2 g/1,000,000 ml"},
      {"smiles": "C[C@@H](c1ncncc1F)[C@](O)(Cn1cncn1)c1ccc(F)cc1F", "note": "[Voriconazole]", "aqueous solubility": "1 g/10,000 ml"}
    ]}
  ]
}
